The source of these data is patent US10590109B2, “Heterocyclic compounds used as FGFR inhibitors” (Nanjing InnoCare Pharma Tech Co., Ltd., priority 2016, dated 2020).

Each structure is given as a SMILES string.

For experiment [1], the target named is human recombinant FGFR3 catalytic structural domain protein (Homo sapiens (Human), UniProt P22607). The experiment can be described thus: FGFR3 activity inhibition test (HTRF kinase assay). The class given is biochemical. Conditions: 90 μM ATP. The protocol: FGFR3 Activity Inhibition Test
human recombinant FGFR3 catalytic structural domain protein, sequence (P22607 399-806): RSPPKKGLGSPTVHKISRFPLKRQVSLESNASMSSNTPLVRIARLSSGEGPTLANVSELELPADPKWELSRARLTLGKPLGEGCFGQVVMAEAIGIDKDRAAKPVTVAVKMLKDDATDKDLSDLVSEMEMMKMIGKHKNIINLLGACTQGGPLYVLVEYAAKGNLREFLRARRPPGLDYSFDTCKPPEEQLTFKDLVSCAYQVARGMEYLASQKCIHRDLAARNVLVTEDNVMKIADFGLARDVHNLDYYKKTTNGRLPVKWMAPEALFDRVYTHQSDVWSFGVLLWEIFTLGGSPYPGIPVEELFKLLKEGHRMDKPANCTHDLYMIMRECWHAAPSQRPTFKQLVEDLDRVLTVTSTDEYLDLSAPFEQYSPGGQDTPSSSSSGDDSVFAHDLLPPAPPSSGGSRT
The influence of the compound according to the present invention on the activity of fibroblast growth factor receptor 3 (FGFR3) was evaluated by an in vitro kinase assay experiment.
(§1) The experimental method is summarized as follows:
The in vitro activity of FGFR3 was determined by assaying the phosphorylation level of the substrate in the kinase reaction, by means of an HTRF kinase assay kit. The reaction buffer comprised the following components: 5-fold diluted Enzymatic buffer/kinase 5× (Cisbio, Catalog number 62EZBFDD) (main ingredient: 50 mM HEPES, pH 7.0), 5 mM MgCl2, 1 mM DTT; the human recombinant FGFR3 catalytic structural domain protein (amino acids 399-806) was commercially available from Sino Biological Inc., diluted with the reaction buffer to a 0.3 ng/μL kinase solution; the substrate reaction solution comprised a biotin labeled tyrosine kinase substrate diluted with the reaction buffer to 1000 nM (Cisbio, catalog number 62TK0PEC), and 90 μM ATP, and the assay solution comprised an Eu^3+ labeled cage-shaped antibody (Cisbio, Catalog number 61T66KLB) diluted with the assay buffer (Cisbio, Catalog number 62SDBRDF) to 0.125 ng/μL, and 62.5 nM streptavidin labeled XL665 (Cisbio, Catalog number 610SAXLB).
The compound was dissolved and diluted in 100% DMSO to 100 μM, then 4-fold-series diluted with DMSO to a minimum concentration of 0.0061 μM, and each concentration point was then 40-fold diluted with the reaction buffer. If the IC50 value of the compound was very low, the initial concentration of the compound could be reduced.
4 μL of a compound solution and 2 μL of an FGFR3 kinase solution were added into a 384 well assay plate (Thermo, Catalog number 264706), mixed uniformly and then incubated for 15 min at room temperature; subsequently, 4 μL of the substrate reaction solution was added therein, and the reaction mixture was incubated for 60 min at room temperature; and then 10 μL of an assay solution of an equal volume to the reaction was added therein and mixed uniformly, followed by placement at room temperature. After 60 min, the enzyme reaction was terminated by EDTA in the assay solution, and the phosphorylated products were identified by both the Eu^3+ labeled cage-shaped antibody (donor) and the streptavidin labeled XL665 antibody (receptor) at the same time. After the excitation with laser, the donors and receptors that were close to each other experienced energy resonance transfer, and the energy transferred from the donor (620 nm) to the receptor (665 nm) could be detected with Envision. The ratio of 665/620 is in positive correlation to the phosphorylation degree of the substrate, thereby to detect the FGFR3 kinase activity. […] The inhibition percentage of the compound against […] activity could be calculated with the following formula: Inhibition percentage=100−100*(signalcompound−signalnegative control)/(signalpositive control−signalnegative control)
The IC50 value of the compound was calculated by the following formula, from 10 concentration points, with XLfit (ID Business Solutions Ltd., UK): Y=Bottom+(Top−Bottom)/(1+10^((Log IC50−X)*slope factor)) Where, Y is the inhibition percentage, Bottom is the bottom plateau of the curve (the bottom plateau of the S-type curve), Top is the top plateau of the curve (the top plateau of the S-type curve), and X is the log value of the compound concentration to be measured.
A general note: Time-resolved FRET reads energy transfer from a long-lived donor to a nearby acceptor.

A further experiment deals with Hep3B cells. Put plainly: Hep3B cell proliferation inhibition test (CellTiter-Glo). Type of experiment: cell-based. Conditions: Homo sapiens, 72 h, CTG. The protocol:
Hep3B Cell Proliferation Inhibition Test
The influence of the compound according to the present invention on Hep3B cell proliferation was evaluated by a luminescence cell viability test.
as §1
A CellTilter-Glo (CTG) assay kit was used to detect an indicator ATP of active cellular metabolism by means of a unique stable luciferase, and the luminous signal produced in the test was in direct proportion to the count of active cells in the medium, thereby to detect the cell proliferation of Hep3B.
A CellTilter-Glo agent (Promega, G7572) was comprised of a CellTilter-Glo lyophilized powder and a CellTilter-Glo buffer, and the lyophilized powder was dissolved into the buffer in use.
Hep3B cells (ATCC, HB-8064) (cell source: Shanghai Academy of Life Sciences, Chinese Academy of Sciences) were cultured in a DMEM complete medium (Thermofisher, 11995073) containing a 10% FBS (GBICO, 10099-141) and 100 units/ml mycillin mixed solution (Thermofisher, 15140122). When the cells coverage reached 80-90% in the culture vessel, after the cells were digested and blown about with 0.25% pancreatin (containing EDTA) (Thermofisher, 25200056), they were planted in a white 384 well plate (Thermofisher, 164610), with 1000 cells in each well (27 μl of a DMEM complete medium), and then the 384 well plate was placed into an incubator at 37° C. and 5% CO2 and cultured overnight (18-20 h). The compound was dissolved and diluted in 100% DMSO to 100 μM, then 4-fold-series diluted with DMSO to a minimum concentration of 0.0061 μM, and each concentration point was 50-fold diluted with the FBS-free DMEM medium. If the IC50 value of the compound was very low, the initial concentration of the compound could be reduced. […] This 384 well plate was placed into an incubator at 37° C. and 5% CO2 for further culture, taken out after 72 h, and stood at room temperature for 30 min. The CTG agent was also taken out and balanced to room temperature. 15 μl of the CTG agent was added into each well, and placed onto a shaker to be gently shaken for 3 min to ensure sufficient cell lysis. After 10 min of standing to allow the luminescence signal to be stable, the luminescence signal was read with EnVision (Perkin Elmer).
The inhibition percentage of the compound against Hep3B cell proliferation could be calculated with the following formula: Inhibition percentage=100−100*(signalcompound−signalnegative control)/(signalpositive control−signalnegative control)
The IC50 value of the compound was calculated by the following formula, from 8 concentration points, with XLfit (ID Business Solutions Ltd., UK): Y=Bottom+(Top−Bottom)/(1+10^((Log IC50−X)*slope factor))
Where, Y is the inhibition percentage, Bottom is the bottom plateau of the curve (the bottom plateau of the S-type curve), Top is the top plateau of the curve (the top plateau of the S-type curve), and X is the log value of the compound concentration to be measured.

Regarding `COC[C@@H](C)Oc1cc(NC(=O)N(C)c2ccc(CN3CCOCC3=O)c(C=O)n2)ncc1C#N` [Compound 14, (R)-3-(5-cyano-4-((1-methoxyprop-2-yl)oxo)pyrid-2-yl)-1-(6-formyl-5-((3-carbonylmorpholino)methyl)pyrid-2-yl)-1-methylurea], the values for the IC50 (in experiment [1]; with Hep3B cells) were over 1000 nM and under 50 nM, respectively.

A word on the IC50: it is the concentration needed to halve the response being measured.
